Patent US20250041286A1, “CANCER TREATMENT USING KETOTIFEN IN COMBINATION WITH A CHECKPOINT INHIBITOR” (Materia Therapeutics Inc., priority 2021, published 2025)
“Also recorded” adds a separate entry of the source.

What was measured:
NIH3T3 cells = assay: Myofibroblast differentiation in co-culture, αSMA and collagen I immunofluorescence; format: cell-based, murine; conditions: co-culture with TGFβ and activated MCs
Experimental: Given that both MCs and fibroblasts are present in the TME, the consequences of MC activation on myofibroblasts was explored using a co-culture assay in which murine MC/9 MCs and NIH3T3 myofibroblasts were separated by a transwell chamber with micropores that only allowed chemical communication (FIG. 13A). In this system, degranulation efficiency was determined by measuring the concentration of β-hexosaminidase (β-hex) in the supernatant. MC degranulation was induced through exposure to compound 48/80 (C48/80), which binds to the MRGPRB2 receptor (the orthologue of the human G-protein-coupled receptor MRGPRX2). […] Co-cultures treated with a vehicle control and Triton X-100 were used as internal assay control to evaluate background and maximum β-hex release, respectively. Transforming growth factor (TGF)-β1 was used as a fibroblast activator due to its capacity to induce a myofibroblast phenotype of the NIH3T3 cells. MC/9 cells were cultivated with NIH3T3 cells for 24 hours and then treated with either ketotifen or TGFβ for additional 24 hours in low serum medium, followed by a 30 minute sensitization with C48/80.
To further explore the MC-fibroblast interaction, the differentiation process of NIH3T3 cells in the co-culture system was monitored by assaying levels of αSMA and collagen I, which are two markers of the myofibroblast phenotype, by immunofluorescence staining (FIG. 13C, FIG. 13D, and FIG. 13E).

MCA205 tumors [1] = assay: qPCR mRNA expression levels in tumors; format: in vivo, mouse; conditions: 10 mg/kg ketotifen
Experimental: Total RNA was isolated from breast tumors according to the standard Trizol-based protocol (Invitrogen), and cDNA synthesis was performed using reverse transcriptase III (RT-III) enzyme and random hexamers (Invitrogen). Real-time polymerase chain reaction was performed using Sybr Fast Universal Master Mix (KAPA). Reactions were performed using a CFX-96 real-time PCR detection system (BioRad) at the following conditions: 95° C. for 2 minutes, 95° C. for 2 seconds, 60° C. for 20 seconds, 60° C. for 1 second, steps 2-4 for 39 cycles. Real-time PCR analysis and calculation of changes in gene expression between compared groups was performed using the ΔΔ^Ct method. Relative gene expression was normalized based on the expression of β-actin. For qPCR analysis, 3-5 biological samples were used per treatment and 3 technical replicates for each sample.
mRNA expression levels were evaluated in both mouse sarcoma models by qPCR, as described above.
RT-qPCR, as described above, […].

K7M2wt tumors [2] = assay: Mast cell tryptase staining of tumors; format: in vivo, mouse; conditions: 10 mg/kg ketotifen
Description: (§1) Finally, to confirm the effect of ketotifen on MC inactivation, ketotifen-treated tumors were stained for tryptase, a serine protease unique to MCs with a role in myofibroblast proliferation and collagen synthesis.

MCA205 tumors [3] = assay: Mast cell tryptase staining of tumors; format: in vivo, mouse; conditions: 10 mg/kg ketotifen
Description: as §1

K7M2wt tumors [4] = assay: Atomic force microscopy (AFM) elastic modulus of tumor samples ex vivo; format: in vivo, mouse; conditions: ketotifen-treated K7M2wt tumors, microscopic scale
Experimental: Following the confirmation of the presence of MCs in human sarcoma samples and the in vitro characterization of the MC-fibroblast interaction, it was assessed whether inhibition of MC degranulation would reduce fibrosis in murine sarcoma models. The impact of MC degranulation by treating MCA205 fibrosarcoma and K7M2wt osteosarcoma tumors with ketotifen was assessed. Ketotifen was administered in four different doses (1, 5, 10, and 25 mg/kg), once a day by i.p. injection for a period of 8 days (as shown in FIG. 4A). […] The effect of ketotifen on tumor stiffness in vivo was monitored using shear wave elastography (SWE). SWE measurements were performed before, after 3 days (for MCA205) or 4 days (for K7M2wt) of ketotifen treatment and upon study completion. […] The pertinent reduction in tumor stiffness was further validated ex vivo at the microscopic tissue scale using atomic force microscopy (AFM) of tumor samples. […] In FIG. 19B, the left peak of lower elastic modulus corresponds to compliant cancer cells, while the tail of higher elastic modulus (dashed rectangles) represents the contribution of the stiffer matrix components, mainly collagen. Data are presented as mean±SE. Statistical analyses were performed by comparing means between two independent groups using the ordinary one-way ANOVA test.

K7M2wt tumors [5] = assay: Proliferation of CAFs, α-SMA / Ki-67 immunostaining; format: in vivo, mouse; conditions: 10 mg/kg ketotifen
Experimental: (§2) Proliferation of CAFs was evaluated by immunostaining for the presence of alpha-smooth muscle actin (α-SMA) (ab5694, Abcam; diluted 1:50) protein and Ki-67 (Abcam; diluted 1:200) proliferation marker following antigen retrieval, 1 hour incubation in serum solution (10% FBS, 3% donkey serum in 1×PBS), and 1 hour incubation in blocking solution for endogenous mouse IgG (Abcam; diluted 1:100). Following washes with TBS-T (0.25% Tween-20), Alexa Fluor-647 anti-rabbit IgG (H+L) (Invitrogen; diluted 1:400) and Fluor-488 anti-rat IgG (H+L) (Invitrogen; diluted 1:400) secondary antibodies and DAPR (Sigma diluted 1:100 of 1 mg/mL stock) were applied for 1 hour at room temperature. Sections were then mounted on microscope slides using the ProLong gold antifade mountant (Invitrogen) and covered with a glass coverslip. CAF proliferation fraction was detected as the ratio of overlapping α-SMA (green) and Ki67 (red) positive signal to total CAF signal (α-SMA^+), indicating CAFs.

MCA205 tumors [6] = assay: as above; format: in vivo, mouse; conditions: 10 mg/kg ketotifen
Experimental: as §2

K7M2wt tumors [7] = assay: Collagen staining with Picrosirius red; format: in vivo, mouse; conditions: 10 mg/kg ketotifen
Experimental: (§3) As tissue stiffness is caused in part by the degree of collagen expression by cancer associated fibroblasts (CAFs) and crosslinking, the intratumoral collagen levels were evaluated by histological staining using Picrosirius red.
(§4) Briefly, tumors were removed from four mice, washed twice in 1×PBS for 10 min, and incubated with 4% PFA overnight at 4° C. The fixative was aspirated, and samples were washed twice in 1×PBS for 10 min. Tissue samples were dehydrated in successive ethanol steps and xylene followed by paraffin embedding. Serial sections ([…]) of paraffin-embedded tissues were produced using the microtome (Accu-Cut SRM 200 Rotary Microtome, SAKURA), flattened out into water, and allowed to dry overnight at 37° C. Sections were then deparaffinized and rehydrated as routinely processed for histology. Following deparaffinization and rehydration, tissue sections were submerged in Picrosirius red stain for 1 hour at room temperature. Next, tissue sections were rinsed in two changes of acetic acid, followed by two changes of absolute ethanol and finally, mounted with DPX mountant for histology (Sigma). Collagen fibers were stained in red while the remaining tissue was pale yellow.

MCA205 tumors [8] = assay: Collagen staining with Picrosirius red; format: in vivo, mouse; conditions: 10 mg/kg ketotifen
Experimental: as §3, §4

## CN1CCC(=C2c3ccccc3CC(=O)c3sccc32)CC1 [ketotifen]
NIH3T3 cells
  myofibroblast differentiation (αSMA and collagen I protein expression): impaired this myofibroblast differentiation
MCA205 tumors [1]
  mRNA expression of ICAM: increased
  mRNA expression of P-selectin (P-sel): increased
  mRNA levels of IFN-γ: upregulated; also recorded: upregulation
  mRNA levels of VEGF: without affecting; also recorded: a reduction in VEGF transcripts was not observed
  mRNA levels of collagen I encoding gene (Col1A1): reduced the mRNA levels of collagen I encoding gene (Col1A1) and connective tissue growth factor (CTGR), although not to a statistically significant extent
  mRNA levels of connective tissue growth factor (CTGR): reduced the mRNA levels of collagen I encoding gene (Col1A1) and connective tissue growth factor (CTGR), although not to a statistically significant extent
  mRNA levels of hyaluronan synthase 2 (Has2): no effect
  mRNA levels of hyaluronan synthase 3 (Has3): no effect
K7M2wt tumors [2]
  tryptase levels: reduced
MCA205 tumors [3]
  tryptase levels: reduced
K7M2wt tumors [4]
  average value of elastic modulus by AFM: reduction
K7M2wt tumors [5]
  CAF levels and proliferation activity (α-SMA, Ki-67): decrease
MCA205 tumors [6]
  CAF levels and proliferation activity (α-SMA, Ki-67): decrease
K7M2wt tumors [7]
  collagen deposition (Picrosirius red): significant reduction
MCA205 tumors [8]
  collagen deposition (Picrosirius red): significant reduction
